Measured values: a melting point compilation (Tetko et al.; mined from patent text by program, amines drawn as free bases though some values may be those of a salt)

Work on `Cc1cc(C(=O)N2Cc3cccn3Cc3ccccc32)ccc1C1=CCCCC1(C)C` yielded a melting point of 131 °C. Compound `Nc1ccc(Oc2ccc3cccnc3c2)cc1` has a melting point of 131 °C. With `CC1(C)COP(=O)(Cc2ccc([N+](=O)[O-])cc2)OC1` the melting point was 176 to 177 °C. In the case of `CCCC(C)c1nn(-c2ccc(C(F)(F)F)cn2)cc1CCCOc1c(CC(=O)O)cccc1OC` (stereo not drawn), the melting point is reported as 107 to 108 °C. For `CN1CCC(c2cc3ccc(Cl)cc3c(=O)[nH]2)CC1`, the melting point was 253 to 255 °C. `CN(C)S(=O)(=O)NCC(C)(C)N` showed a melting point of 77 to 78 °C. `CCOP(=O)(C=Cc1ccc([N+](=O)[O-])cc1)OCC` showed a melting point of 95 to 98 °C. `CC(C)(C)OC(=O)C(Nc1ccccc1)c1ccc(Cl)cc1` (racemic) gave a melting point of 98 °C. `CNc1nc(C)c(C)cc1NC(=O)N1CCN(c2cc(C)cc(C)c2)CC1` gave a melting point of 160 to 162 °C. In the case of `COc1c(C)c(C)c2c(c1C)C(c1ccc(CCCCCCC(=O)O)cc1)C(C)(C)O2` (stereo not drawn), the melting point is reported as 88 to 89 °C. Compound `COc1ccc2c(c1)CCC1CC(=O)NN=C21` (stereo not drawn) has a melting point of 198 °C. In the case of `CC1(C)Nc2ccc(C#N)cc2C(NC(=NC#N)Nc2ccccc2)C1O` (stereo not drawn), the melting point is reported as 218 to 219 °C. `CCOC(=O)c1cn(CC)c2nc(N3CCN(C(=O)OCC)CC3)c(F)cc2c1=O` gave a melting point of 171 to 173 °C. For `CCOC(=O)COc1ccc(N(C)c2cc3ccc(Cl)cc3c(Cl)n2)cc1`, the melting point was 99 °C. `CC(C)(CC(N)=O)C(Br)(Br)Br` gave a melting point of 109 to 111 °C. In the case of `CCOC(=O)Cc1ccc(C(=O)c2ccccc2)cc1[N+](=O)[O-]`, the melting point is reported as 61 to 62 °C. For `COc1ccc(-c2cn3ccc4ccccc4c3n2)cc1`, the melting point was 177 to 179 °C. Work on `Cn1nc(COc2cccc3c2CN(C2CCC(=O)NC2=O)C3=O)cc1CN1CCOCC1` (stereo not drawn) yielded a melting point of 125 to 127 °C. `Cc1oc2cc(O)ccc2c(=O)c1C#N` showed a melting point of over 300 °C. With `CCC1(CCOS(C)(=O)=O)C(=O)N2CC=CC(C(=O)OC)N2C1=O` (stereo not drawn) the melting point was 94 to 96 °C. `O=C(Nc1cccnc1)N1CCN(c2cc(-c3cccc(F)c3)ncn2)CC1` gave a melting point of 205 to 206 °C. In the case of `CC1=C(S(C)(=O)=O)C(c2ccc(Cl)c([N+](=O)[O-])c2)C2=C(CCC2=O)N1` (stereo not drawn), the melting point is reported as 232 °C. For `CC(=O)c1cc(C#N)c(OCc2ccccc2)nc1C`, the melting point was 94 to 99 °C. For `CC1(C)OC[C@H](COc2nc(Oc3ccc(F)cc3F)nc3[nH]nc(-c4ccccc4Cl)c23)O1`, the melting point was 70.1 to 75.9 °C. Compound `CC(C)c1cccc(C(C)C)c1NC(=O)NC1COc2ccccc2C1` (stereo not drawn) has a melting point of 186 to 188 °C. Compound `O=C1NC(=O)C(Cc2ccc(OCc3cscn3)cc2)S1` (stereo not drawn) has a melting point of 151 to 153 °C. Work on `CCOC(=O)/C=C/c1ccc(C(C)(C)C)c([N+](=O)[O-])c1` yielded a melting point of 77 to 78 °C. `CONC(=O)CC1=C(C)/C(=C/c2ccc(S(C)=O)cc2)c2ccc(F)cc21` (stereo not drawn) gave a melting point of 177 to 179 °C. For `O=C1NC(=O)C2=C1c1c([nH]c3ccccc13)Cc1[nH]c3ccccc3c12`, the melting point was over 350 °C. `CC(Oc1cc(O)ccc1[N+](=O)[O-])C(=O)O` (stereo not drawn) showed a melting point of 190 to 195 °C. With `CN(C)c1ccnc(CSc2c[nH]c3ccccc23)c1` the melting point was 189 to 191 °C. Compound `Clc1cc(-c2csc(Cc3ccccc3)n2)ccn1` has a melting point of 104 to 106 °C. With `Cc1cc(Oc2ncc(C(F)(F)F)cc2Cl)nn1C(=O)NC1CCCCC1` the melting point was 69 to 71 °C. In the case of `COC(=O)Cc1csc(NS(=O)(=O)c2cccc(Cl)c2C)n1`, the melting point is reported as 187 °C. In the case of `C#Cc1cccc(Nc2nc(Nc3cccc(C#C)c3)nc(-c3ccccc3)n2)c1`, the melting point is reported as 210 °C. Work on `CC(CCC(O)C(C)(C)O)C1CCC2C3C(O)CC4CC(O)CCC4(C)C3CC(O)C12C` (stereo not drawn) yielded a melting point of 199 to 200 °C. With `S=C(Nc1ccccc1)Nc1ncccc1OCc1c(Cl)cccc1Cl` the melting point was 148 to 149 °C. For `O=C1NCC(CN2C(=O)C3(COc4cc5c(cc43)CCO5)c3ccccc32)O1` (stereo not drawn), the melting point was 197 to 198 °C. In the case of `CCCN(C)C(=O)N(C)C(=O)Nc1ccccc1`, the melting point is reported as 63 to 64 °C. Work on `COc1ccc(C(=O)c2cccc(C(F)(F)F)c2)cc1C` yielded a melting point of 56 to 59 °C. For `CC[C@H](C)[C@H](NC(=O)OCc1ccccn1)C(=O)NC(Cc1ccccc1)C(O)C(O)C(Cc1ccccc1)NC(=O)[C@@H](NC(=O)OCc1ccccn1)[C@@H](C)CC` (stereo partly drawn), the melting point was 220 to 221 °C. Work on `CCCCN(CCCC)p1oc2c(C(C)(C)C)cc(C(C)(C)C)cc2c2cc(C(C)(C)C)cc(C(C)(C)C)c2o1` yielded a melting point of 140 °C. In the case of `COC(OC)[C@@H]1CCCN1C(=O)[C@@H]1CCCN1C(=O)C[C@H]1CCc2ccccc2C1`, the melting point is reported as 103 to 106 °C. Work on `O=C(O)CCC(=NOCc1ccc(OCc2csc(-c3ccccc3)n2)cc1)c1ccccc1` yielded a melting point of 104 to 105 °C. Work on `COc1ccc(Cc2nccc3ccccc23)cc1OC` yielded a melting point of 146 to 147 °C. `COc1cccc2c(Nc3ccc(C(=O)NC4CCN(Cc5ccccc5)CC4)cc3)c(C(=O)NC3CCN(CCc4ccccc4)CC3)cnc12` gave a melting point of 216 to 220 °C. Compound `CC(=O)NCCc1coc2ccc3c(c12)OCCO3` has a melting point of 112 °C. Work on `CNC(=NC#N)Nc1ccc(C2=NNC(=O)CC2C)cc1` (stereo not drawn) yielded a melting point of 235 °C. `CC(C)Oc1ccc(C(=O)n2nc(Nc3ccc(OCc4ccccc4)cc3)nc2N)cc1` gave a melting point of 79 to 81 °C. With `CCN(CC)C(=O)Cc1cc(C(C)C)c(O)cc1C` the melting point was 138 to 139 °C. Work on `Nc1cc(C(=O)c2ccccc2)ccc1N1CCCC1` yielded a melting point of 112 °C. Compound `Nc1c(Cl)nc(C2CC2)nc1Cl` has a melting point of 54 °C. Compound `CCCCCOc1ccc(C=C2SC(=S)N(CC(=O)O)C2=O)cc1OCc1ccccc1` has a melting point of 229 to 234 °C. For `CC(C)(C)c1cc(SC(Sc2cc(C(C)(C)C)c(O)c(C(C)(C)C)c2)c2cc(C(C)(C)C)c(O)c(C(C)(C)C)c2)cc(C(C)(C)C)c1O`, the melting point was 175 to 177 °C. Work on `CNC(=O)c1cc(Oc2ccc(N)c(F)c2)ccn1` yielded a melting point of 140 to 141 °C. Compound `C[C@@H](NC(=O)c1ccc(-c2ccc(Cl)cc2)cc1)[C@](O)(Cn1cncn1)c1ccc(F)cc1F` has a melting point of 173 to 174 °C. With `COc1ccc(CC(=O)NC(C)(C)C(O)c2ccccc2)cc1OC` (stereo not drawn) the melting point was 123 to 124 °C. In the case of `NC(=O)c1sc2ncnc(-c3cc(O)c4c(c3)OCC4)c2c1N`, the melting point is reported as 285 °C. Compound `Cn1cc(CS(C)(=O)=O)c(=O)c2ccc(C(F)(F)F)cc21` has a melting point of 240 to 242 °C. With `CSc1ncccc1NC(=O)CCCCCCCCSc1nc2ccccc2o1` the melting point was 84 to 85 °C. In the case of `CCOC(=O)c1ncn2c1CN=C(Cl)c1cc(OC)ccc1-2`, the melting point is reported as 186 °C. Work on `CCOC(=O)c1cn(C2CC2)c2nc(N3CCC(N)C3)c(F)cc2c1=O` (stereo not drawn) yielded a melting point of 144 to 146 °C. Work on `CCOC(=O)c1c(-c2ccncc2)[nH]c(-c2ccncc2)c1C` yielded a melting point of 206 to 208 °C. In the case of `COCC1CN(c2cc3c(cc2F)c(=O)c(C(=O)O)cn3-c2ccc(F)cc2)CCN1` (stereo not drawn), the melting point is reported as 216 to 218 °C. `O=c1[nH]c2ccc(Cl)cc2c2c1[nH]c1ccccc12` gave a melting point of 325 to 327 °C. Compound `COc1cc(C(OC(C)=O)C(=O)O)cc(OC)c1OC` (stereo not drawn) has a melting point of 135 to 139 °C. With `COC(=O)c1ccc(NCc2ccc(F)cc2)cn1` the melting point was 107 to 108 °C. For `Cc1ccc(C2C(=O)N(c3ccccc3)N(c3ccccc3)C2=O)cc1`, the melting point was 184 to 185 °C. `CCCCCCCNC(=O)Nc1ccccc1C(=O)NC1CCCN(C(c2ccccc2)c2ccccc2)C1` (stereo not drawn) gave a melting point of 112 °C. Work on `CNC(=O)c1ccc(-c2cnc3oc(=O)n(Cc4cccc(OC)c4)c3n2)cc1` yielded a melting point of 168 to 169 °C. In the case of `COc1ccc2c(C)c(Cl)ccc2c1C(F)(F)F`, the melting point is reported as 102 to 103 °C. `O[C@H]1c2cc(OCc3ccc4cc(F)ccc4n3)ccc2OC[C@H]1Oc1cccnc1` showed a melting point of 163 to 164 °C. Compound `CC(C)C1Cc2cnc3c(c2C1(O)CCN)CCO3` (stereo not drawn) has a melting point of 142 to 143 °C. For `COc1ccccc1-n1c(=O)[nH]c2c(C(N)=O)nc(N[C@H]3CC[C@H](OC(N)=O)CC3)nc21`, the melting point was 157 to 160 °C. In the case of `CCCn1c(=O)c2c(nc(C=Cc3ccc(C(=O)OC)cc3OC)n2C)n(CCC)c1=O`, the melting point is reported as 198 to 200 °C. For `Cn1ccc2cc(N3Cc4c(cccc4[N+](=O)[O-])C3=O)ccc21`, the melting point was 267 to 271 °C. In the case of `C=CC(CC(O)C(CC1CCCCC1)NC(=O)C(Cc1c[nH]cn1)NC(=O)C(Cc1ccccc1)N(C)C(=O)CC(C)(C)C)C(C)C` (stereo not drawn), the melting point is reported as 126 °C. `CCOC(=O)CN(C(=O)CNC(=O)Nc1cccc(C)c1)c1ccccc1` showed a melting point of 181 °C. For `O=C(O)CCCN1C(=O)c2ccc(C(=O)O)cc2C1=O`, the melting point was 218 to 220 °C. Compound `CC1CCc2c(c3cc(Br)ccc3n2C(=O)OC(C)(C)C)C1` (stereo not drawn) has a melting point of 122 °C. With `O=C(Nc1ccc(CN2C(=O)[C@H]3CCC[C@H]3N(C(=O)CN3C(=O)c4ccccc4C3=O)c3ccccc32)cc1)OCc1ccccc1` (relative stereo) the melting point was 144 to 147 °C. With `CSc1sc(C(N)=O)c(C(C)C)c1-c1oncc1C` the melting point was 105 °C. `CC(=O)C1Cc2c(nc3ccccc3c2C)C(N2CCOCC2)CN1` (stereo not drawn) showed a melting point of 179 °C. `NC(=O)COc1ccccc1[N+](=O)[O-]` gave a melting point of 190 to 191 °C. With `COC(=O)c1ccc(C=CC=O)cc1` the melting point was 99 to 101 °C. `CCCc1cnc2c(c1)C(=O)N1C2=NC(=O)C1(C)C(C)C` (stereo not drawn) gave a melting point of 116 °C. Compound `Cc1nc2c(OCc3c(Cl)ccc(N(C)C(=O)CNC(N)=O)c3Cl)cccn2c1Br` has a melting point of 147 to 149 °C. Work on `ON=Cc1ncc(-c2ccccc2)o1` yielded a melting point of 208 to 210 °C. Compound `S=C1Nc2ccccc2Sc2nccn21` has a melting point of 156 to 159 °C. `COc1ccc(Nc2nc(Nc3ccc(OC)c(Cl)c3)nc(NC3CCCCCC3)n2)cc1Cl` showed a melting point of 183 °C. In the case of `O=C(O)c1cccc(-c2cccc3oc(Cc4ccc(F)c(F)c4)cc23)c1`, the melting point is reported as 194 to 195 °C. `CC(=O)OC1CSC(Oc2cccnc2C(=O)N2CCCCC2)C(OC(C)=O)C1OC(C)=O` (stereo not drawn) gave a melting point of 89 to 92 °C. With `c1ccc(-c2csc(-c3cccs3)n2)cc1` the melting point was 51 to 53 °C. Work on `CCN1C(=O)C(C)(C)C(=O)N(C)c2cc(OCCCn3c(=O)c(Br)cc4ccccc43)ccc21` yielded a melting point of 168 to 169 °C. Work on `CC1(NC(=O)C(F)(F)F)CN(c2c(F)cc3c(=O)c(C(=O)O)cn(CCF)c3c2F)C1` yielded a melting point of 205 to 215 °C. With `O=Cc1ccc(OCc2ccccc2)cn1` the melting point was 68 to 70 °C. In the case of `CCCn1c(=O)c2c(NC)n(C(C)=O)nc2n(Cc2cccc(Cl)c2)c1=O`, the melting point is reported as 169 to 171 °C. With `CC(C)(C)c1cc(=O)cc(C(C)(C)C)s1` the melting point was 97 to 98 °C.
